From paper PMC10303920, “Competition between skin antimicrobial peptides and commensal bacteria in type 2 inflammation enables survival of S. aureus” (Cell reports, 2023)
No end group written: not given here.

Key:
S. aureus (ATCC35556) [1] = test: Survival of S. aureus on mouse skin in inflammation models; format: in vivo, Balb/c mice
Description: All experiments involving live animals were done with the approval of the Institutional Animal Care and Use Guidelines of the University of California, San Diego (Protocol number: S09074). To investigate influences of distinct type of skin inflammation on the microbial community on the skin surface, we employed Th2 and Th17 inflammation models using mixed sex of Il4ra^−/− Balb/c (Jackson Laboratory, ME), Camp^−/− Balb/c,[4] Flg^ft/ft Balb/c or WT Balb/c mice (Jackson Laboratory) (6–8 weeks). Mice were housed under a specific pathogen-free condition with 12hr light/12hr dark cycle at 20–22°C and 30–70% humidity. Mice were randomly selected, the back skin was shaved, treated with depilatory cream, rinsed with water, cleaned with alcohol swab twice. To induce Th2 inflammation, MC903 (50μL of 90μM in ethanol) was applied to the back skin of WT, Il4ra^−/− or Camp^−/− mice every day for 14 days. Control mice received equal volume of ethanol. Alternatively, a sterile patch (2 × 2cm) with OVA solution (100 μg/100 μL PBS) or PBS was placed on tape-stripped dorsal skin of Flg^ft/ft Balb/c mice (6–8 weeks, mixed sex) and covered with Tegaderm wound dressing film for 8 days (the patch was replaced every 2 days). Mice received 3 times of 8-day OVA exposures by 2-week intervals. […] The dorsal skin was disinfected with alcohol swabs twice, applied with a 6-mm TSB agar disc containing 1 × 10^6 CFU of S. aureus (ATCC35556), and covered with Tegaderm wound dressing film for initial 24 h for quantitative bacterial application. […]
Bacteria were cultured in tryptic soy broth (TSB) at 37°C overnight, washed with PBS, and re-suspended in PBS at 1 × 10^6 CFU/5μL. […] The entire dorsal skin was then covered with wound dressing film for quantitative bacterial application and to avoid contamination.[18] […]
Survival of S. aureus and CoNS were measured on Baird-Parker agar for S. aureus or mannitol salt agar with egg yolk for total Staphylococcus species using easySpiral automatic diluter plater with exponential mode or circle mode and automatic colony counter (Interscience Inc., France). […]

[2] = system: AMP gene expression at wound edge; test: AMP response to partial-thickness skin wounds of mice treated by MC903; format: in vivo, Balb/c mice; details: MC903 or vehicle for 14 days, scratched by 18 gauge needle, biopsy at wound edge after 48 hours; Figure S3
Description: All experiments involving live animals were done with the approval of the Institutional Animal Care and Use Guidelines of the University of California, San Diego (Protocol number: S09074). To investigate influences of distinct type of skin inflammation on the microbial community on the skin surface, we employed Th2 and Th17 inflammation models using mixed sex of Il4ra^−/− Balb/c (Jackson Laboratory, ME), Camp^−/− Balb/c,[4] Flg^ft/ft Balb/c or WT Balb/c mice (Jackson Laboratory) (6–8 weeks). Mice were housed under a specific pathogen-free condition with 12hr light/12hr dark cycle at 20–22°C and 30–70% humidity. Mice were randomly selected, the back skin was shaved, treated with depilatory cream, rinsed with water, cleaned with alcohol swab twice. To induce Th2 inflammation, MC903 (50μL of 90μM in ethanol) was applied to the back skin of WT, Il4ra^−/− or Camp^−/− mice every day for 14 days. […] The dorsal skin was disinfected with alcohol swabs twice, applied with a 6-mm TSB agar disc containing 1 × 10^6 CFU of S. aureus (ATCC35556), and covered with Tegaderm wound dressing film for initial 24 h for quantitative bacterial application. […] The mRNA expression of each gene was evaluated by qPCR and normalized to GAPDH expression (key resources table). page 4: Figure S3. […] P-value (*P<0.05 and **P<0.01) was calculated by two-tailed unpaired parametric t-test. […]

S. aureus (ATCC35556) [3] = test: Survival of S. aureus on mouse skin after topical steroid; format: in vivo, Balb/c WT mice; details: 0.1% triamcinolone topical at 24 and 32 h after S. aureus, read at 48 h; Figure 2L
Description: (§1) Back skin of Balb/c WT mice (8 weeks, female) were shaved and treated with MC903 as described above. After decontaminating the skin with alcohol swab twice, S. aureus (ATCC35556, 1 × 10^6 CFU) were applied with a TSB agar disc and whole back skin was covered with Tegaderm wound dressing film for 24 h. Tegaderm and the TSB disc were removed, and then 0.1% Triamcinolone (Perrigo) or Vaseline (50μg) were applied twice on back skin at 24 and 32 h after S. aureus were applied. Skin swab and biopsy was ob tained to measure S. aureus survival and immune response of the skin, respectively, at 48 h after bacteria application.
Survival of S. aureus and CoNS were measured on Baird-Parker agar for S. aureus or mannitol salt agar with egg yolk for total Staphylococcus species using easySpiral automatic diluter plater with exponential mode or circle mode and automatic colony counter (Interscience Inc., France). To determine total CoNS survival, CFUs on mannitol salt agar were subtracted by CFUs on Baird-Parker agar. To distinguish ShA9-WT and ShA9-ΔLanti mutant, CoNS colonies with pink color without halo were randomly picked from mannitol salt agar plate and conducted colony PCR with gene specific primers for ShA9-lantibiotic-α (key resources table).

[4] = system: Il17a, Il4, Il13, Camp, Defb14, Defb4 expression; test: qPCR of cytokine and AMP genes in mouse skin after topical steroid; format: in vivo, Balb/c WT mice; details: topical triamcinolone
Description: as §1
To determine expression of mRNA for Il4, Il13, Il17a, Tslp, Defb4, […] or Camp, 6mm punch biopsy was obtained from the mouse back skin. Skin biopsy was stored in 1mL of RNAlater solution at −80°C. Total RNA was extracted with PureLink RNA extraction kit (ThermoScientific Fisher) and one μg of total RNA was reversely transcribed with VERSO cDNA synthesis kit (ThermoScientific Fisher). Predeveloped qPCR assay primer sets (IDT oligo, listed in key resources table) were used for analyzing the expressions of these genes. The mRNA expression of each gene was evaluated by qPCR and normalized to GAPDH expression (key resources table).

ShA9-WT and ShA9-ΔLanti = test: Growth inhibition of ShA9-WT and ShA9-ΔLanti by human and murine AMPs (OD600); format: cell-based, Staphylococcus hominis; details: 90% RPMI/10% TSB, 30°C, 24 h, mean of duplicate technical replicates, Figure 4E
Description: Staphylococcus strains collected from normal skin from healthy subjects or lesional skin from AD patients were cultured in TSB overnight. Bacteria were washed with PBS and resuspended to 90% RPMI media and 10% TSB. Bacteria (1 × 10^5 CFU/mL) were incu bated with or without human AMPs (LL-37, hBD-2, hBD-3) or mouse cathelin-related AMP (CRAMP) in 90% RPMI media and 10% TSB (100 μL) in each well of a 96-well plate at 30°C for 24 h. Bacterial growth was assessed by measuring OD600. Minimal inhibitory concentration was defined as the lowest concentration which prevent visible bacterial growth (<5% of OD600 value of the con trol well).

Molecule: C=C1/C(=C\C=C2/CCC[C@]3(C)[C@@H]([C@H](C)/C=C/[C@@H](O)C4CC4)CC[C@@H]23)C[C@@H](O)C[C@@H]1O [MC903]
- S. aureus survival on the skin after MC903 pretreatment relative to untreated mice (S. aureus (ATCC35556) [1]; WT Balb/c mice, MC903 50 μL of 90 μM daily for 14 days, S. aureus 1 × 10^6 CFU for 48 h, Figure S1G): increased
- AMP response to skin wounding after MC903 [2]: suppressed

Molecule: CC(C)Cn1cnc2c(N)nc3ccccc3c21 [imiquimod]
- Protection against S. aureus on imiquimod-treated skin (S. aureus (ATCC35556) [1]; Flg^ft/ft mice, 5% imiquimod cream daily for 7 days, S. aureus for 48 hours, Figure S6): enhanced protection against S. aureus

Molecule: C[C@]12C=CC(=O)C=C1CC[C@H]1[C@@H]3C[C@@H](O)[C@](O)(C(=O)CO)[C@@]3(C)C[C@H](O)[C@@]12F [triamcinolone]
- Survival of S. aureus on MC903-pretreated mouse skin (S. aureus (ATCC35556) [3]): decreased survival of S. aureus
- Il17a expression, healthy skin after S. aureus exposure ([4]; no MC903, Figure 2F): decreased
- Camp expression, healthy skin after S. aureus exposure ([4]; no MC903, Figure 2I): decreased
- Defb14 expression, healthy skin after S. aureus exposure ([4]; no MC903, Figure 2J): decreased
- Il4 expression, skin with Th2 inflammation (MC903 and S. aureus) ([4]; Figure 2G): decreased
- Il13 expression, skin with Th2 inflammation (MC903 and S. aureus) ([4]; Figure 2H): decreased
- Camp expression, skin with Th2 inflammation (MC903 and S. aureus) ([4]; Figure 2I): increased
- Defb14 expression, skin with Th2 inflammation (MC903 and S. aureus) ([4]; Figure 2J): increased
- Defb4 expression, skin with Th2 inflammation (MC903 and S. aureus) ([4]; Figure 2K): increased

Molecule: CRAMP (GLL-33)
- Sensitivity of ShA9-WT to the AMP compared with ShA9-ΔLanti (growth inhibition) (ShA9-WT and ShA9-ΔLanti): more sensitive

Molecule: human beta-defensin 2 [hBD-2]
- Sensitivity of ShA9-WT to the AMP compared with ShA9-ΔLanti (growth inhibition) (ShA9-WT and ShA9-ΔLanti): more sensitive

Molecule: human beta-defensin 3 (GIINTLQKYYCRVRGGRCAVLSCLPKEEQIGKCSTRGRKCCRRKK; ends and bridges not checked; cysteine pairing not given here; UniProt P81534 23-67, looked up) [hBD-3, human β-defensin, synthetic AMP (Peptide International)]
- Sensitivity of ShA9-WT to the AMP compared with ShA9-ΔLanti (growth inhibition) (ShA9-WT and ShA9-ΔLanti): more sensitive

B1: ovalbumin (protein, UniProt P01012 2-386, looked up)
Ovalbumin: GSIGAASMEFCFDVFKELKVHHANENIFYCPIAIMSALAMVYLGAKDSTRTQINKVVRFDKLPGFGDSIEAQCGTSVNVHSSLRDILNQITKPNDVYSFSLASRLYAEERYPILPEYLQCVKELYRGGLEPINFQTAADQARELINSWVESQTNGIIRNVLQPSSVDSQTAMVLVNAIVFKGLWEKAFKDEDTQAMPFRVTEQESKPVQMMYQIGLFRVASMASEKMKILELPFASGTMSMLVLLPDEVSGLEQLESIINFEKLTEWTSSNVMEERKIKVYLPRMKMEEKYNLTSVLMAMGITDVFSSSANLSGISSAESLKISQAVHAAHAEINEAGREVVGSAEAGVDAASVSEEFRADHPFLFCIKHIATNAVLFFGRCVSP
notes: ovalbumin used for epicutaneous sensitization to induce Th2 inflammation
- S. aureus survival on the skin after OVA sensitization relative to untreated mice (S. aureus (ATCC35556) [1]; Flg^ft/ft Balb/c mice, 100 μg OVA in 100 μL PBS, 3 exposure cycles, S. aureus 1 × 10^6 CFU for 48 h, Figure S1M): increased colonization by S. aureus
